Laboratory results: publication PMC7393355, “A FRET-based screening method to detect potential inhibitors of the binding of CNNM3 to PRL2” (Scientific Reports, 2020)
Values belong to the molecule of their own block, whether it stands above or below them.

Key:
[1] = system: binding of CNNM3-YPet and CyPet-PRL2 (CNNM3-PRL2 complex); test: FRET-based inhibition test of the binding of CNNM3-YPet and CyPet-PRL2; parameters: species or system human; settings: CNNM3-YPet 200 nM, CyPet-PRL2 200 nM, n = 6
Description: FRET measurements were conducted in TBS (50 mM Tris–HCl (pH 8.0) and 150 mM NaCl). Proteins were mixed in 96-well plates and incubated at R.T. for 1 h. Fluorescence intensities were measured using an excitation wavelength of 435 nm and an emission wavelength of 530 nm with a Cytation 3 (BioTek).
The emission spectra were measured with each component at 200 nM using the Cytation 3 (BioTek) with 435 nm excitation (Supplementary Fig. 2), and the original data are shown in Supplementary Table 1. The FRET intensity was calculated by Eq. (1).1 IFRET=IA-raw-Dleakage-Adirect where IA-raw is the intensity measured at 530 nm with 435 nm excitation, Dleakage is the leakage of the donor emission into the acceptor wavelength (530 nm) upon donor excitation, and Adirect is the direct excitation of the acceptor with the donor wavelength (435 nm).
The inhibition of complex formation was assayed by pre-incubating the binding partner (200 nM) with inhibitory factors (1, 10 μM) for 20 min at R.T., followed by addition of the other protein (200 nM) (Figs. 3B, 4C). The effects of divalent cations (10 mM) and nucleotides (3 mM) were also assayed similarly (Fig. 5).
The peptides for the peptide inhibition test were synthesized by Shanghai Dechi Biosciences (Fig. 6C,D). The peptide sequences were as follows: peptide 1, IVQKVNNEGEGDPFYEVLG; peptide 2, […] (an S–S bond was formed between the cysteine residues, as verified by HPLC and mass spectrometry). The peptides were dissolved in TBS buffer at 10 mM before use.
FRET data were evaluated by subtracting backgrounds (fluorescence intensities of CyPet-PRL2, CNNM3-YPet and a blank well). All data analysis was performed using GraphPad Prism 6 (GraphPad Software) with the methods described in each legend.

[2] = system: PRL2; test: Isothermal titration calorimetry (ITC) with PRL2; assay type: binding, human; settings: 25 °C, cell 20 μM PRL2, syringe 200 μM ligand, 20 mM Tris-HCl pH 7.0, 50 mM NaCl, 1 mM TCEP, 2% DMSO, repeated twice
Description: ITC experiments were performed by ITC200 (GE Healthcare, USA). PRL2 and CNNM3 CBS domain proteins were purified in Buffer A (20 mM Tris–HCl (pH 7.0), 50 mM NaCl, and 1 mM TCEP). JMS-053 (Aobious, USA) was dissolved in 100% DMSO at 10 mM, further diluted to 200 μM with Buffer A. The ITC cell was thermally equilibrated at 25 °C and then filled with 250 μl of 20 μM PRL2, while the syringe was filled with 40 μl of 200 μM JMS-053 or CNNM3 CBS protein. In the case of JMS-053, 2% DMSO at a final concentration was added into PRL2 protein solution. Data were analysed by Microcal Origin software.

Molecule: IVQKVNNEGEGDPFYEVLG [peptide 1, shorter synthesized peptide derived from the CNNM CBS loop]
effect of peptide on complex formation (in words) ([1]; peptide 100 μM): failed to interrupt complex formation

Molecule: Nc1ncnc2c1ncn2[C@@H]1O[C@H](COP(=O)(O)OP(=O)(O)O)[C@@H](O)[C@H]1O [ADP, reference compound]
alteration of FRET intensity by nucleotide ([1]; 3 mM nucleotide): 9.6%

Molecule: N=C1C(=O)NC(=O)c2cc(-c3ccccc3)sc21 [JMS-053, reference compound]
interaction with PRL2 by ITC (in words) [2]: no interaction | effect on the interaction between CNNM3 and PRL2 (in words) [1]: no effect

Other lines, results leading:

decrease of FRET intensity by divalent cation ([1]; 10 mM divalent cation): 90.3%
Molecule: [Zn+2] [Zn^2+]

effect of divalent cation on FRET intensity (in words) ([1]; 10 mM divalent cation): no effect on the FRET intensity
Molecule: [Mg+2] [Mg^2+]

inhibition of complex formation ([1]; peptide 100 μM): 20% | inhibition of complex formation ([1]; peptide 500 μM): 50%
Molecule: LAICQRVNNEGEGDPFYEVCGIVT (an S–S bond was formed between the cysteine residues (disulfide) [peptide 2, longer CNNM CBS loop peptide with two residues mutated to cysteine to form an S–S bond]
